# Assay results published in ChEMBL document CHEMBL1201862, “PubChem BioAssay data set” (2004).
#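 1) Cells in 96-well plates. 2) Compound, 48 h, 5 concentrations. 3) Linear interpolation between surrounding doses. 4) Unreached endpoint = highest concentration. The concentration for 50% growth inhibition is given as GI50.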 The source made the active and inactive calls. Rule as the data show it: active = GI50 up to about 1.1 µM and inactive = higher.
# Experiments:
# Assay in all cases: growth of human tumour cells (NCI), 48 h
# 786-0 = system: 786-0
# A549 = system: A549
# ACHN = system: ACHN
# BT-549 = system: BT-549
# CAKI-1 = system: CAKI-1
# CCRF-CEM = system: CCRF-CEM
# COLO 205 = system: COLO 205
# DU-145 = system: DU-145
# EKVX = system: EKVX
# HCC 2998 = system: HCC 2998
# HCT-116 = system: HCT-116
# HCT-15 = system: HCT-15
# HL-60 = system: HL-60
# HOP-62 = system: HOP-62
# HT-29 = system: HT-29
# Hs-578T = system: Hs-578T
# IGROV-1 = system: IGROV-1
# K562 = system: K562
# KM12 = system: KM12
# LOX IMVI = system: LOX IMVI
# M14 = system: M14
# MCF7 = system: MCF7
# MDA-MB-231 = system: MDA-MB-231
# MDA-MB-435 = system: MDA-MB-435
# MDA-N = system: MDA-N
# MOLT-4 = system: MOLT-4
# Malme-3M = system: Malme-3M
# NCI-H226 = system: NCI-H226
# NCI-H23 = system: NCI-H23
# NCI-H460 = system: NCI-H460
# NCI-H522 = system: NCI-H522
# NCI/ADR-RES = system: NCI/ADR-RES
# OVCAR-3 = system: OVCAR-3
# OVCAR-4 = system: OVCAR-4
# OVCAR-5 = system: OVCAR-5
# OVCAR-8 = system: OVCAR-8
# PC-3 = system: PC-3
# RPMI-8226 = system: RPMI-8226
# RXF 393 = system: RXF 393
# SF-268 = system: SF-268
# SF-295 = system: SF-295
# SK-MEL-28 = system: SK-MEL-28
# SK-MEL-2 = system: SK-MEL-2
# SK-MEL-5 = system: SK-MEL-5
# SK-OV-3 = system: SK-OV-3
# SN12C = system: SN12C
# SNB-19 = system: SNB-19
# SNB-75 = system: SNB-75
# SR = system: SR
# SW-620 = system: SW-620
# T47D = system: T47D
# TK-10 = system: TK-10
# U-251 = system: U-251
# UACC-257 = system: UACC-257
# UACC-62 = system: UACC-62
# UO-31 = system: UO-31
# HOP-92 = system: HOP-92
# SF-539 = system: SF-539
smiles,measurement,setting,value
CCC(=O)N1NC(=O)C(CC)(CC)C1=O,GI50,786-0,> 100 µM (inactive)
same,GI50,A549,> 100 µM (inactive)
same,GI50,ACHN,> 100 µM (inactive)
same,GI50,BT-549,> 100 µM (inactive)
same,GI50,CAKI-1,> 100 µM (inactive)
same,GI50,CCRF-CEM,> 100 µM (inactive)
same,GI50,COLO 205,> 100 µM (inactive)
same,GI50,DU-145,> 100 µM (inactive)
same,GI50,EKVX,> 100 µM (inactive)
same,GI50,HCC 2998,> 100 µM (inactive)
same,GI50,HCT-116,> 100 µM (inactive)
same,GI50,HCT-15,> 100 µM
same,GI50,HL-60,> 100 µM (inactive)
same,GI50,HOP-62,> 100 µM (inactive)
same,GI50,HT-29,> 100 µM (inactive)
same,GI50,Hs-578T,83 µM (inactive)
same,GI50,IGROV-1,> 100 µM (inactive)
same,GI50,K562,> 100 µM (inactive)
same,GI50,KM12,> 100 µM (inactive)
same,GI50,LOX IMVI,> 100 µM (inactive)
same,GI50,M14,> 100 µM (inactive)
same,GI50,MCF7,> 100 µM (inactive)
same,GI50,MDA-MB-231,> 100 µM (inactive)
same,GI50,MDA-MB-435,> 100 µM (inactive)
same,GI50,MDA-N,> 100 µM (inactive)
same,GI50,MOLT-4,> 100 µM (inactive)
same,GI50,Malme-3M,0.276 µM (active)
same,GI50,NCI-H226,> 100 µM (inactive)
same,GI50,NCI-H23,> 100 µM (inactive)
same,GI50,NCI-H460,> 100 µM (inactive)
same,GI50,NCI-H522,> 100 µM (inactive)
same,GI50,NCI/ADR-RES,> 100 µM (inactive)
same,GI50,OVCAR-3,> 100 µM (inactive)
same,GI50,OVCAR-4,> 100 µM (inactive)
same,GI50,OVCAR-5,> 100 µM (inactive)
same,GI50,OVCAR-8,> 100 µM (inactive)
same,GI50,PC-3,> 100 µM (inactive)
same,GI50,RPMI-8226,> 100 µM (inactive)
same,GI50,RXF 393,> 100 µM (inactive)
same,GI50,SF-268,> 100 µM (inactive)
same,GI50,SF-295,> 100 µM (inactive)
same,GI50,SK-MEL-28,> 100 µM (inactive)
same,GI50,SK-MEL-2,> 100 µM (inactive)
same,GI50,SK-MEL-5,> 100 µM (inactive)
same,GI50,SK-OV-3,> 100 µM (inactive)
same,GI50,SN12C,> 100 µM (inactive)
same,GI50,SNB-19,> 100 µM (inactive)
same,GI50,SNB-75,36.8 µM (inactive)
same,GI50,SR,> 100 µM (inactive)
same,GI50,SW-620,> 100 µM (inactive)
same,GI50,T47D,> 100 µM (inactive)
same,GI50,TK-10,> 100 µM (inactive)
same,GI50,U-251,> 100 µM (inactive)
same,GI50,UACC-257,> 100 µM (inactive)
same,GI50,UACC-62,> 100 µM (inactive)
same,GI50,UO-31,> 100 µM (inactive)
COc1cc2c(cc1OC)C(=O)/C(=C/c1ccc(O)cc1)CC2,GI50,786-0,> 10 µM (inactive)
same,GI50,A549,> 10 µM (inactive)
same,GI50,ACHN,> 10 µM (inactive)
same,GI50,BT-549,> 10 µM (inactive)
same,GI50,CAKI-1,5.82 µM (inactive)
same,GI50,CCRF-CEM,1.97 µM (inactive)
same,GI50,COLO 205,> 10 µM (inactive)
same,GI50,DU-145,> 10 µM (inactive)
same,GI50,EKVX,> 10 µM (inactive)
same,GI50,HCC 2998,> 10 µM (inactive)
same,GI50,HCT-116,> 10 µM (inactive)
same,GI50,HCT-15,> 10 µM
same,GI50,HL-60,7.31 µM (inactive)
same,GI50,HOP-62,> 10 µM (inactive)
same,GI50,HOP-92,> 10 µM (inactive)
same,GI50,HT-29,> 10 µM (inactive)
same,GI50,Hs-578T,> 10 µM (inactive)
same,GI50,IGROV-1,> 10 µM (inactive)
same,GI50,K562,> 10 µM (inactive)
same,GI50,KM12,> 10 µM (inactive)
same,GI50,LOX IMVI,> 10 µM (inactive)
same,GI50,M14,> 10 µM (inactive)
same,GI50,MCF7,> 10 µM (inactive)
same,GI50,MDA-MB-231,> 10 µM (inactive)
same,GI50,MDA-MB-435,> 10 µM (inactive)
same,GI50,MDA-N,> 10 µM (inactive)
same,GI50,MOLT-4,> 10 µM (inactive)
same,GI50,Malme-3M,> 10 µM (inactive)
same,GI50,NCI-H226,> 10 µM (inactive)
same,GI50,NCI-H23,> 10 µM (inactive)
same,GI50,NCI-H460,> 10 µM (inactive)
same,GI50,NCI/ADR-RES,> 10 µM (inactive)
same,GI50,OVCAR-3,> 10 µM (inactive)
same,GI50,OVCAR-4,> 10 µM (inactive)
same,GI50,OVCAR-5,> 10 µM (inactive)
same,GI50,OVCAR-8,> 10 µM (inactive)
same,GI50,PC-3,> 10 µM (inactive)
same,GI50,RPMI-8226,> 10 µM (inactive)
same,GI50,RXF 393,> 10 µM (inactive)
same,GI50,SF-268,> 10 µM (inactive)
same,GI50,SF-295,> 10 µM (inactive)
same,GI50,SF-539,> 10 µM (inactive)
same,GI50,SK-MEL-28,> 10 µM (inactive)
same,GI50,SK-MEL-2,> 10 µM (inactive)
same,GI50,SK-MEL-5,> 10 µM (inactive)
same,GI50,SK-OV-3,> 10 µM (inactive)
same,GI50,SN12C,> 10 µM (inactive)
same,GI50,SNB-19,> 10 µM (inactive)
same,GI50,SR,> 10 µM (inactive)
same,GI50,SW-620,> 10 µM (inactive)
same,GI50,T47D,> 10 µM (inactive)
same,GI50,TK-10,> 10 µM (inactive)
same,GI50,U-251,> 10 µM (inactive)
same,GI50,UACC-257,> 10 µM (inactive)
same,GI50,UACC-62,> 10 µM (inactive)
same,GI50,UO-31,2.34 µM (inactive)
COC(=O)C(C(=O)C(=O)Nc1ccccc1C#N)c1nc2ccc([N+](=O)[O-])cc2nc1O (configuration not stated),GI50,786-0,> 100 µM (inactive)
same,GI50,A549,> 100 µM (inactive)
same,GI50,ACHN,> 100 µM (inactive)
same,GI50,BT-549,> 100 µM (inactive)
same,GI50,CAKI-1,> 100 µM (inactive)
same,GI50,CCRF-CEM,94 µM (inactive)
same,GI50,COLO 205,> 100 µM (inactive)
same,GI50,DU-145,> 100 µM (inactive)
same,GI50,EKVX,78 µM (inactive)
same,GI50,HCC 2998,> 100 µM (inactive)
same,GI50,HCT-116,> 100 µM (inactive)
same,GI50,HCT-15,> 100 µM
same,GI50,HOP-62,> 100 µM (inactive)
same,GI50,HOP-92,> 100 µM (inactive)
same,GI50,HT-29,> 100 µM (inactive)
same,GI50,Hs-578T,> 100 µM (inactive)
same,GI50,IGROV-1,94.4 µM (inactive)
same,GI50,KM12,37.8 µM (inactive)
same,GI50,LOX IMVI,> 100 µM (inactive)
same,GI50,M14,> 100 µM (inactive)
same,GI50,MCF7,> 100 µM (inactive)
same,GI50,MDA-MB-231,> 100 µM (inactive)
same,GI50,MDA-MB-435,> 100 µM (inactive)
same,GI50,MDA-N,> 100 µM (inactive)
same,GI50,MOLT-4,> 100 µM (inactive)
same,GI50,Malme-3M,> 100 µM (inactive)
same,GI50,NCI-H226,> 100 µM (inactive)
same,GI50,NCI-H23,> 100 µM (inactive)
same,GI50,NCI-H460,> 100 µM (inactive)
same,GI50,NCI-H522,53.7 µM (inactive)
same,GI50,NCI/ADR-RES,92.5 µM (inactive)
same,GI50,OVCAR-3,> 100 µM (inactive)
same,GI50,OVCAR-4,53.3 µM (inactive)
same,GI50,OVCAR-5,> 100 µM (inactive)
same,GI50,OVCAR-8,> 100 µM (inactive)
same,GI50,PC-3,> 100 µM (inactive)
same,GI50,RXF 393,> 100 µM (inactive)
same,GI50,SF-268,> 100 µM (inactive)
same,GI50,SF-295,> 100 µM (inactive)
same,GI50,SF-539,44.5 µM (inactive)
same,GI50,SK-MEL-28,> 100 µM (inactive)
same,GI50,SK-MEL-2,> 100 µM (inactive)
same,GI50,SK-MEL-5,> 100 µM (inactive)
same,GI50,SK-OV-3,> 100 µM (inactive)
same,GI50,SN12C,> 100 µM (inactive)
same,GI50,SNB-19,> 100 µM (inactive)
same,GI50,SNB-75,> 100 µM (inactive)
same,GI50,SR,> 100 µM (inactive)
same,GI50,SW-620,> 100 µM (inactive)
same,GI50,T47D,> 100 µM (inactive)
same,GI50,TK-10,> 100 µM (inactive)
same,GI50,U-251,> 100 µM (inactive)
same,GI50,UACC-257,> 100 µM (inactive)
same,GI50,UACC-62,> 100 µM (inactive)
same,GI50,UO-31,> 100 µM (inactive)
